Laboratory results published in paper PMC6691826, “1D NMR WaterLOGSY as an efficient method for fragment-based lead discovery” (Journal of Enzyme Inhibition and Medicinal Chemistry, 2019).

Key:
[1] = biological target: T1, human serum albumin (HSA) (Homo sapiens, UniProt P02768); experiment: Dissociation constant of fragment bound to HSA; type: binding
T1 construct: purchased Sigma A3782

[2] = biological target: T1, human serum albumin (HSA); experiment: WaterLOGSY NMR epitope mapping, HSA; type: binding; details: all protons, bound to HSA, 1.5 s mixing time, normalised
Description: (§1) NMR samples for STD experiments consisted of 400 µM fragment in 0.5% DMSO-d6 and 10% D2O (v/v) together with a protein concentration of 20 µM for peroxiredoxin and HSP90, 10 µM for Bcl-xL, 15 µM for Mcl-1, 2 µM for glycogen phosphorylase, and 5 µM for HSA.
(§2) Standard 1 D, STD, and WaterLOGSY NMR spectra were acquired at 20 °C with an Agilent Inova 600 MHz NMR spectrometer, equipped with a room temperature 5 mm triple-resonance inverse probe with z-axis field gradient and a Bruker 600 MHz NMR spectrometer, equipped with a Z-gradient cryoprobe.
(§3) WaterLOGSY mixing time was 1.5 s, and additional experiments were performed with 0.75 s and 0.25 s mixing time. Both STD and WaterLOGSY spectra were recorded for each sample. WaterLOGSY spectra in the absence of protein receptor were recorded with 400 µM compound. All the NMR experiments were performed at 293 K with excitation sculpting to suppress peaks from water. […] The STD factors were calculated according to the following equation: R=(ISTD/I1D)×100) were ISTD and I1D are the intensity of proton resonances of the STD and the 1 D proton spectra, respectively. […]
(§4) This is due to the WaterLOGSY mechanism that involves magnetisation transfer from bulk water. Therefore, we propose the following protocol to quantitatively evaluate the WaterLOGSY signals of the protons of a compound bound to its receptor. […]

[3] = biological target: T2, N-terminal domain of HSP90 (Homo sapiens, UniProt P07900); experiment: WaterLOGSY NMR epitope mapping, HSP90; type: binding; details: proton H1, bound to HSP90, 1.5 s mixing time, normalised
T2 construct: the N-terminal domain (9–236) of HSP-90 were produced and purified; made in house; host or cells: Escherichia coli
Description: as §1, §2, §3, §4

[4] = biological target: N-terminal domain (9–236) of HSP90; parameters: method as in PMID 20718493; details: bound to HSP90; cited from earlier work
Bcl-xL = biological target: Bcl-xL; parameters: method as in PMID 16420051; details: bound to Bcl-xL; cited from earlier work
[5] = biological target: T3, glycogen phosphorylase (GP) (Oryctolagus cuniculus, UniProt P00489); experiment: Dissociation constant of fragment bound to GP; type: binding, rabbit; details: unpublished data
T3 sequence (P00489 1-843): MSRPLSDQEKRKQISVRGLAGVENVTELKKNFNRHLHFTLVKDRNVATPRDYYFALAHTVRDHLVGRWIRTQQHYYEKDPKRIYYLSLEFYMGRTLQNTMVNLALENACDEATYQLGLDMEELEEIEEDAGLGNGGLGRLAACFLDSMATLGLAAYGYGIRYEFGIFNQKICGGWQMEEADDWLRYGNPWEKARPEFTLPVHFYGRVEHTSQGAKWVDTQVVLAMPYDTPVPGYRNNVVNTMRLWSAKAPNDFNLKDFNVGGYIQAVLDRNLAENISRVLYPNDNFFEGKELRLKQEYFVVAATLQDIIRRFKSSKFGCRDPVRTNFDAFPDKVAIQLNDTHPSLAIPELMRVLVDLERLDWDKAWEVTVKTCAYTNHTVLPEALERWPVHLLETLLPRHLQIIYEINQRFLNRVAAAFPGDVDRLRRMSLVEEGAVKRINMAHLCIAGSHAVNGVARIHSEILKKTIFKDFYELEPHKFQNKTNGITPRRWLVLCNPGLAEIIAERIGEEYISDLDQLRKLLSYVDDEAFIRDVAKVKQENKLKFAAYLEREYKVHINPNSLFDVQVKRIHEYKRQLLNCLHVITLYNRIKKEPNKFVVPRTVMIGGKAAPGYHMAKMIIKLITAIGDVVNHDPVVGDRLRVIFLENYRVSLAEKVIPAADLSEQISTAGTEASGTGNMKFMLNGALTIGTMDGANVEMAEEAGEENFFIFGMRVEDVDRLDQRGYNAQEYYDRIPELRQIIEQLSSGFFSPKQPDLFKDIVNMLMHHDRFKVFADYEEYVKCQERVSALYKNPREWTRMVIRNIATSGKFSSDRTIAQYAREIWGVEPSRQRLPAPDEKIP

T1 sequence (P02768 25-609): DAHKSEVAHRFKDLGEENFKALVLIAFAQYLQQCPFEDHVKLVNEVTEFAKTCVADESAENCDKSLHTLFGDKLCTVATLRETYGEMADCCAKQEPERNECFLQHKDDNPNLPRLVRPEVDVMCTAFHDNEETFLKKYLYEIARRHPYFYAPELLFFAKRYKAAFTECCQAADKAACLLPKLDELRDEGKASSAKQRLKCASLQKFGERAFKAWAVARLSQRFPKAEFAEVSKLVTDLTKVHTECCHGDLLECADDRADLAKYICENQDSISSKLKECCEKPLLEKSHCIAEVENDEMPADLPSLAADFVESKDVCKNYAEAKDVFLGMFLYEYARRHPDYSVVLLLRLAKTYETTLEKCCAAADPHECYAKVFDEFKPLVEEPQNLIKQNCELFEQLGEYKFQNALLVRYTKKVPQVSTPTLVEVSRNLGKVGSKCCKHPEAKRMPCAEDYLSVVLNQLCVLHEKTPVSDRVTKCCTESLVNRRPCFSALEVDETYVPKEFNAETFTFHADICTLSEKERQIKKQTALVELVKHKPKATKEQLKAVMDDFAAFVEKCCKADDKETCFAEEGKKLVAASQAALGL

Cc1ccc(O)c(O)c1 [Compound 1, 4-methylcatechol]
Kd [1]: > 1000 µM
WLOGSY factor [2]: 100%

CCN(CC)C(=O)c1ccc(O)c(OC)c1 [Compound 4, N,N-diethylvanillamide]
WLOGSY factor [3]: 10%
Kd [4]: 790 µM

O=C(O)c1ccc(-c2ccc(F)cc2)cc1 [Compound 5, 4′-fluoro-[1,1′-biphenyl]-4-carboxylic acid]
Kd (Bcl-xL): 300 µM

O=C(O)c1ccc(Oc2ccccc2)cc1 [Compound 6, 4-phenoxybenzoic acid]
Kd [5]: > 1000 µM
